How the values were obtained:
[1] = system: CC(C)CCC[C@@H](C)[C@H]1CC[C@H]2[C@@H]3[C@H](O)CC4=CC(=O)CC[C@]4(C)[C@H]3CC[C@]12C; test: steady-state turnover of purified enzyme, HPLC; type: biochemical, Mycolicibacterium smegmatis; conditions: heme
CYP125A3 = CYP125A3 (Mycolicibacterium smegmatis, UniProt A0R4Y3); test: UV-vis spectral titration; type: binding
CYP125A4 [2] = biological target: T1, CYP125A4 (Mycolicibacterium smegmatis, UniProt A0QY38); test: UV-vis spectral titration; type: binding
T1 sequence (A0QY38 1-430): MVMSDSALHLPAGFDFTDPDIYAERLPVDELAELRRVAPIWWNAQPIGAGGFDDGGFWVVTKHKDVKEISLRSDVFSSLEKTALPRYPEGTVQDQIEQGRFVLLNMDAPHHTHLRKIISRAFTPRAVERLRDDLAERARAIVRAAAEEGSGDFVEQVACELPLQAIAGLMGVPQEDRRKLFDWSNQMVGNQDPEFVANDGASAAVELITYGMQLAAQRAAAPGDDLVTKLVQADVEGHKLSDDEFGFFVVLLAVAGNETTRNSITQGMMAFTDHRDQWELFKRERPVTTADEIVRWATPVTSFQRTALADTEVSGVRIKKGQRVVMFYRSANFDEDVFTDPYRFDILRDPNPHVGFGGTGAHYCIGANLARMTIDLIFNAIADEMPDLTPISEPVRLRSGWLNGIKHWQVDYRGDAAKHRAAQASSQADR

CYP125A4 [3] = biological target: T1, CYP125A4; test: UV-vis partial type I spectral shift; type: binding
[4] = system: CC(C)CCC[C@@H](C)[C@H]1CC[C@H]2[C@@H]3CCC4=CC(=O)CC[C@]4(C)[C@H]3CC[C@]12C; test: steady-state turnover of purified enzyme, HPLC; type: biochemical, Mycolicibacterium smegmatis; conditions: heme

Sequence of CYP125A3 (A0R4Y3 whole entry): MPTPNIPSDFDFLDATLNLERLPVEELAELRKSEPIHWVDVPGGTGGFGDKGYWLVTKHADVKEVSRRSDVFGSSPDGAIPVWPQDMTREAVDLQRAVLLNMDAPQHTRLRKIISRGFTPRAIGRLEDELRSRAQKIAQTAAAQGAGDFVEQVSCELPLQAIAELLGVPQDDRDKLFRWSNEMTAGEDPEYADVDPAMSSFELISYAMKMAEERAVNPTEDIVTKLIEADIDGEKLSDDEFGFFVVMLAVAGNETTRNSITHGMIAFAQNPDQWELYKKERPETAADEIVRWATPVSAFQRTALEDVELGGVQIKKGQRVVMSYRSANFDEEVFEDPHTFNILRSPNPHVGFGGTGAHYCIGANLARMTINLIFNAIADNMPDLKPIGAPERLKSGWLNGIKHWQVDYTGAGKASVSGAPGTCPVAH

CYP125A4 Y87W (Mycolicibacterium smegmatis MC2 155; Y87W)
Km [1]: 5.1 ± 1.3 µM

CC(C)CCC[C@@H](C)[C@H]1CC[C@H]2[C@@H]3[C@H](O)C=C4C[C@@H](O)CC[C@]4(C)[C@H]3CC[C@]12C [7α-hydroxycholesterol]
Kd (CYP125A3): 32.9 ± 4.7 µM | Kd (CYP125A4 [2]): 8.7 ± 0.5 µM

CC(C)CCC[C@@H](C)[C@H]1CC[C@H]2[C@@H]3CC=C4C[C@@H](O)CC[C@]4(C)[C@H]3CC[C@]12C [cholesterol]
UV-vis partial type I spectral shift; C-26 oxidation by HPLC (CYP125A4 [3]): Addition of cholesterol or 4-cholesten-3-one did induce a partial shift to the type I high-spin species

CYP125A3 W83Y (Mycolicibacterium smegmatis MC2 155; W83Y)
Km [4]: 24.1 ± 7.8 µM

From article PMC4660985 (Biochemistry, 2015)
